Reference: PMC10470909, “cis-Decalin-containing tetramic acids as inhibitors of insect steroidogenic glutathione S-transferase Noppera-bo” (PLOS ONE, 2023)
“Also recorded” adds a separate entry of the source. Read-outs that look alike come from different tables or passages of the source.

Columns and labels:
[1] = system: Aspergillus fumigatus Af293; assay: Antimicrobial assay, A. fumigatus; type: cell-based
Candida albicans JCM1542 = assay: Antimicrobial assay, C. albicans; type: cell-based
[2] = In vitro cytotoxicity, HL-60; type: cell-based; conditions: human, HL-60 cells (human promyelocytic leukemia cell line)
Protocol: (§1) In vitro cytotoxicity and antimicrobial assays were conducted as previously reported.

Escherichia coli HO141 = assay: Antimicrobial assay, E. coli; type: cell-based
[3] = system: mitochondrial respiration in HeLa cells; assay: Measurement of mitochondrial respiration (OCR/ECAR, Seahorse XFe96 extracellular flux analyzer); conditions: 6 min after sample treatment
Protocol: Changes in oxygen consumption rate (OCR) and extracellular acidification rate (ECAR) were measured using a Seahorse XFe96 analyzer (Agilent, CA, USA).
To confirm this, the effect of 1 on energy metabolism was evaluated using an extracellular flux analyzer, which can simultaneously measure two metabolic properties: oxygen consumption rate (OCR) for an indicative of OXPHOS and extracellular acidification rate (ECAR) for that of glycolysis [20].
Percentage changes in OCR and ECAR (relative to their respective baseline values) induced by test compounds were calculated from S14 Fig. Each data point represents the mean ± standard deviation value at 6 min after sample treatment (n = 3). Note that decreasing OCR and increasing ECAR is a typical phenotype characteristic to mitochondrial respiration inhibitors [20].
Real-time measurements of the OCR and ECAR in HeLa cells were performed after treating the cells with different concentrations of the test samples. To perform the Seahorse XF Cell Mito Stress Test, the cells were treated with oligomycin A (OMA, 1 μM), FCCP (0.125 μM), and rotenone/antimycin A (R/A, 1 μM each) at the indicated times. Data are mean ± s.d. (n = 3 technical replicates) from one representative experiment out of three independent experiments.

[4] = system: Plasmodium falciparum 3D7; assay: Antimalarial assay, P. falciparum; type: cell-based
[5] = In vitro cytotoxicity, HeLa; type: cell-based, human; conditions: human, HeLa cells (human cervical epidermoid carcinoma cell line)
Protocol: as §1

[6] = system: Staphylococcus aureus 209; assay: Antimicrobial assay, S. aureus; type: cell-based
[7] = In vitro cytotoxicity, src^ts-NRK; type: cell-based, rat; conditions: rat; src^ts-NRK cells
Protocol: as §1

[8] = system: Pyricularia oryzae kita-1; assay: microbe, parasite or virus in culture; type: cell-based; conditions: for IC50: Pyricularia oryzae, KITA1, read-out: Antimicrobial activity (IC50, μM) Po
HIV-1 integrase = system: HIV-1 integrase; set-up: method as in earlier work; conditions: cited from earlier work
[9] = system: HeLa, human cervical epidermoid carcinoma cell line; assay: In vitro cytotoxicity, HeLa; type: cell-based; conditions: HeLa cells
Protocol: as §1

[10] = system: src^ts-NRK, normal rat kidney cells infected with ts25; assay: In vitro cytotoxicity, src^ts-NRK; type: cell-based
Protocol: as §1

Solubility in solvents = type: physicochemical; conditions: hexane, CHCl3, EtOAc, acetone, MeOH, MeCN, DMSO, or H2O
Protocol: Its molecular formula was determined as C24H31NO6 using HRESITOFMS.

[11] = Aspergillus fumigatus Af293, read-out: Antimicrobial activity (IC50, μM) Af
[12] = Candida albicans JCM1542, read-out: Antimicrobial activity (IC50, μM) Ca
[13] = Escherichia coli HO141, read-out: Antimicrobial activity (IC50, μM) Ec
[14] = Plasmodium falciparum 3D7, read-out: Antimicrobial activity (IC50, μM) Pf
[15] = Staphylococcus aureus 209, read-out: Antimicrobial activity (IC50, μM) Sa
[16] = Aspergillus fumigatus, AF293, read-out: Antimicrobial activity (IC50, μM) Af
[17] = Candida albicans, JCM1542, read-out: Antimicrobial activity (IC50, μM) Ca
[18] = Escherichia coli, HO141, read-out: Antimicrobial activity (IC50, μM) Ec
[19] = Plasmodium falciparum, 3D7, read-out: Antimicrobial activity (IC50, μM) Pf
[20] = Staphylococcus aureus, 209, read-out: Antimicrobial activity (IC50, μM) Sa

SMILES: C/C=C/[C@@H]1C=C[C@@H]2C[C@H](C)CC[C@H]2[C@]1(C)C(=O)C1=C(O)[C@H](CO)N(C)C1=O [Compound 1, equisetin]
- IC50 [1, 11]: 29 µM
- IC50 (Candida albicans JCM1542; [12]): 29 µM
- IC50 [2]: 12 µM
- IC50 (Escherichia coli HO141; [13]): 13 µM
- change in extracellular acidification rate (ECAR) [3]: increase in ECAR
- change in oxygen consumption rate (OCR) [3]: decrease in OCR
- IC50 [4, 14]: 12 µM
- IC50 [5]: 35 µM
- IC50 [6, 15]: 1.4 µM
- IC50 [7]: 20 µM
- IC50 [8]: 0.15 µM
- HIV-1 integrase inhibitory activity (in words) (HIV-1 integrase): inhibit HIV-1 integrase activity approximately equally

SMILES: C/C=C/C=C/[C@H]1C(C)=C[C@H]2C[C@@H](C)CC[C@@H]2[C@@]1(C)C(=O)C1=C(O)[C@@H](CO)N(C)C1=O [Compound 2, phomasetin]
- IC50 [1, 16]: 21 µM
- IC50 (Candida albicans JCM1542; [17]): 21 µM
- IC50 [2]: 3.4 µM
- IC50 (Escherichia coli HO141; [18]): 1.3 µM
- IC50 [4, 19]: 1.8 µM
- IC50 [5]: 6.1 µM
- IC50 [6, 20]: 0.14 µM
- IC50 [7]: 11 µM
- IC50 [8]: 0.044 µM
- HIV-1 integrase inhibitory activity (in words) (HIV-1 integrase): inhibit HIV-1 integrase activity approximately equally

SMILES: C/C=C/[C@H]1C=C[C@H]2C[C@H](C)CC[C@H]2[C@]1(C)C(=O)C1=C(O)[C@H](CO)N(C)C1=O [Compound 3, cis-equisetin]
- IC50 [1, 11]: 40 µM
- IC50 (Candida albicans JCM1542; [12]): 40 µM
- IC50 [2]: 14 µM
- IC50 (Escherichia coli HO141; [13]): 20 µM
- IC50 [4, 14]: 13 µM
- IC50 [5]: 46 µM
- IC50 [6, 15]: 5.6 µM
- fold lower activity compared with that of 1, S. aureus ([6]; growth inhibitory activity against S. aureus, relative to 1): 4 fold
- IC50 [7]: 35 µM
- IC50 [8]: 0.46 µM
- fold lower activity compared with that of 1, P. oryzae ([8]; growth inhibitory activity against P. oryzae, relative to 1): 3 fold

SMILES: C/C=C/C=C/[C@@H]1C(C)=C[C@@H]2C[C@@H](C)CC[C@@H]2[C@@]1(C)C(=O)C1=C(O)[C@@H](CO)NC1=O [Compound 4, N-demethyl-cis-phomasetin]
- IC50 [1, 16]: 58 µM
- IC50 (Candida albicans JCM1542; [17]): 9 µM
- IC50 [2]: 22 µM
- IC50 (Escherichia coli HO141; [18]): 1.5 µM
- IC50 [4, 19]: 13 µM
- IC50 [5]: > 75 µM
- cytotoxicity against HeLa (in words) [9]: no cytotoxicity
- IC50 [6, 20]: 6 µM
- IC50 [7]: > 75 µM
- cytotoxicity against src^ts-NRK (in words) [10]: no cytotoxicity
- IC50 [8]: 2 µM

SMILES: C/C=C/C=C/[C@H]1C(C)=C[C@H]2C[C@@H](C)CC[C@@H]2[C@@]1(C)C(=O)C1=C(O)[C@@H](CO)NC1=O [Compound 5, N-demethylphomasetin]
- IC50 [1, 16]: 9.8 µM
- IC50 (Candida albicans JCM1542; [17]): 3.8 µM
- IC50 [2]: 11 µM
- IC50 (Escherichia coli HO141; [18]): 2.5 µM
- IC50 [4, 19]: 4.8 µM
- IC50 [5]: 40 µM
- IC50 [6, 20]: 0.2 µM
- IC50 [7]: 63 µM
- IC50 [8]: 1.3 µM

SMILES: C/C=C/C=C/[C@@H]1C(C)=C[C@@H]2C[C@@H](C)CC[C@H]2[C@]1(C)C(=O)C1=C(O)C(CO)NC1=O (some centres unmarked) [Compound 6]
- IC50 [1, 16]: > 70 µM
- IC50 (Candida albicans JCM1542; [17]): 65 µM
- IC50 [2]: 12 µM
- IC50 (Escherichia coli HO141; [18]): > 70 µM
- IC50 [4, 19]: 23 µM
- IC50 [5]: > 70 µM
- IC50 [6, 20]: 3.8 µM
- IC50 [7]: > 70 µM
- IC50 [8]: 5.5 µM

SMILES: CC1=C[C@H]2C[C@@H](C)CC[C@@H]2[C@@](C)(C(=O)C2=C(O)[C@@H](CO)N(C)C2=O)[C@H]1/C=C/C=C/CO [Compound 7]
- IC50 [1, 16]: > 70 µM
- IC50 (Candida albicans JCM1542; [17]): > 70 µM
- IC50 [2]: 22 µM
- IC50 (Escherichia coli HO141; [18]): 21 µM
- IC50 [4, 19]: 4.7 µM
- IC50 [5]: 28 µM
- IC50 [6, 20]: 1.4 µM
- IC50 [8]: 12 µM

SMILES: CC1=C[C@@H]2C[C@@H](C)CC[C@@H]2[C@@](C)(C(=O)C2=C(O)[C@@H](CO)NC2=O)[C@@H]1/C=C/C=C/C(=O)O [Compound 8]
- IC50 [1, 16]: > 70 µM
- IC50 (Candida albicans JCM1542; [17]): > 70 µM
- IC50 [2]: > 70 µM
- IC50 (Escherichia coli HO141; [18]): 28 µM
- IC50 [4, 19]: 26 µM
- IC50 [5]: > 70 µM
- solubility (in words) (Solubility in solvents): not soluble in any solvent; also recorded: too low
- IC50 [6, 20]: 63 µM
- IC50 [7]: > 70 µM
- IC50 [8]: > 70 µM
